# Measurements as given in US4389412A, “Substituted cyclopropanecarboxylic acid esters and pesticidal compositions containing the same as active ingredient” (priority 1979, dated 1983).
# Read-outs that look alike come from different tables or passages of the source.
# Columns and labels:
# [1] = system: tobacco cutworms (Prodenia litura Fabricius); experiment: Mortality test with tobacco cutworms by topical application method; format: in vivo; conditions: 24 h
# Method: Mortality test with tobacco cutworms (Prodenia litura Fabricius) by topical application method
# Using a microsyringe, 0.5 μl of the above solution was dripped onto the thoracic adbominal region of each of 3-instar tobacco cutworm (Prodenia litura Fabricius) larvae. […] The test larvae were used in groups of 20 individuals each.
# [2] = system: small brown planthoppers (Laodelphax striatellus Fallen); experiment: Utility Example-3: spray on rice plants, small brown planthoppers; format: in vivo; conditions: 7 ml/pot, 24 hours
# Method: (§1) A 30% emulsifiable concentrate of each of the cis- and trans-isomers and a 50:50 mixture of the cis- and trans-isomers of Compound (1) and of Compound (2) as prepared by the procedure described in Formulation Example-1 was diluted with water to a concentration of 80 ppm as active compound. Rice plants 4 weeks after sowing in pots (each pot 6 cm in diameter, 7 seedlings) were sprayed with the above diluted solution at the rate of 7 ml/pot and, after drying in the air, each pot was covered with a wire-mesh cage. Then, 30 adult small brown planthoppers (Laodelphax striatellus Fallen) were released into the cage. The pots were kept in a constant-temperature chamber at 25° C. […] In all groups, the mortality was not less than 90%.
# [3] = system: two-spotted spider mites (Tetranychus urticae Koch); experiment: Mortality test with two-spotted spider mites by spray application method; format: in vivo; conditions: 48 h, 200 ppm spray, two days, read-out: Percent decrease of population (%)
# Method: Mortality test with two-spotted spider mites (Tetranychus urticae Koch) by spray application method
# To a 5% aqueous solution of acetone was added dropwise a small amount of Tween-20 (polyethylene sorbitan monolaurate) as a surfactant. […] From 30 to 50 adult two-spotted spider mites (Tetranychus urticae Koch) were released on the leaves of kidney-bean plants in the dicotyledonous stage in a pot 9 cm in diameter, followed by a spray application of the above solution. The pot was kept in a constant-temperature chamber at 26° C. and two days later the mites were examined for deaths. The percent decrease of population was then calculated.
# [4] = system: houseflies (Musca domestica); experiment: Mortality test with houseflies by topical application method; conditions: 24 h
# [5] = system: green rice leafhoppers (Nephotettix cincticeps Uhler); experiment: Utility Example-2: spray on rice plants, green rice leafhoppers; format: in vivo; conditions: 7 ml/pot, 24 hours
# Method: as §1, with “and” for “and of”, “above” for “above diluted”, “Then, 20 female” for “Then, 30”, “adult green rice leafhoppers (Nephotettix cincticeps Uhler)” for “adult small brown planthoppers (Laodelphax striatellus Fallen)”, “The caged” for “The”, “mortality values were” for “mortality was”
# [6] = system: killifish (Orizias latipes); experiment: Fish toxicity test with killifish; format: in vivo; conditions: Table 1; 48 hrs.
# Method: (§2) Fish toxicity test with killifish (Orizias latipes)
# (§3) An acetone solution of one of the test compounds as mentioned in Table 8 was prepared by adding said test compound to 15 ml of acetone. To 10 liters of water was added a predetermined amount of the above acetone solution and the mixture was stirred thoroughly to prepare an aqueous solution containing the test compound in a predetermined concentration. This was used as a test water. After the each test water was moderately aerated, ten killifishes (Orizias latipes) with a body weight of about 0.25 g and a body length of about 2.5 cm were released into said each test water which was maintained at 25±1° C. After 48 hours, the test fish was examined for death. The TLm (median tolerance limit, ppm) was determined.
# [7] = Fish toxicity test with killifish; format: in vivo, Orizias latipes; conditions: water, killifish, 25±1° C., read-out: TLm (48 hrs.)
# Method: as §2, §3
# [8] = system: green rice leafhoppers (Nephotettix cincticeps Uhler); experiment: Mortality test with green rice leafhoppers by topical application method; conditions: Nephotettix cincticeps, in Oryza sativa, 24 h
# Method: Mortality test with green rice leafhoppers (Nephotettix cincticeps Uhler) by topical application method
# Then, the insects were kept at 25° C. with access to rice plant seedlings. The insects were used in groups of 15 individuals each.
# [9] = system: rice stem borers (Chilo suppressalis Walker); experiment: Mortality test with rice stem borers by topical application method; format: in vivo; conditions: 24 h
# Method: Mortality test with rice stem borers (Chilo suppressalis Walker) by topical application method
# Using a microsyringe, 0.5 μl of the above solution was applied to the thoracic abdominal region of each final-instar larva of rice stem borer (Chilo suppressalis Walker). […] The test larvae were used in groups of 20 individuals each.
# [10] = system: guppies (Lebistes reticulatus); experiment: Fish toxicity test with guppies; format: in vivo; conditions: Table 1; 48 hrs.
# In short: (§4)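 Ten female guppies, 3–4 months old, held at 20 °C in water containing surfactant and test compound added in acetone solution. TLm (median tolerance limit, ppm) determined.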
# [11] = Fish toxicity test with guppies; format: in vivo, Lebistes reticulatus; conditions: guppy, water, guppies, 20° C., read-out: TLm (48 hrs.)
# In short: as §4
# [12] = system: green rice leafhoppers (Nephotettix cincticeps Uhler); experiment: Utility Example-4: 0.2% dust on rice seedlings, green rice leafhoppers; format: in vivo; conditions: 5 kg per 10 ares, 24 hours, resistant to organophosphorus and carbamate pesticides
# Source text: A 0.2% dust preparation of each of the cis- and trans-isomers and a 50:50 mixture of the cis- and trans-isomers of Compound (1) and of Compound (2) as prepared by the procedure described in Formulation Example-3 was applied to rice seedlings by means of a bell-jar duster at the rate of 5 kg per 10 ares. […] In all cases, the mortality was not less than 90%.
# [13] = system: green rice leafhoppers (Nephotettix cincticeps); experiment: Utility Example-6: 0.5% dust on rice seedlings, green rice leafhoppers; format: in vivo; conditions: 1 kg per 10 ares, 24 hours, resistant to organophosphorus and carbamate pesticides
# Source text: A 0.5% dust preparation of each of the cis- and trans-isomers and a 50:50 mixture of the cis- and trans-isomers of Compound (1) and of Compound (2) as prepared by the procedure described in Formulation Example-4 was applied to rice seedlings by means of a bell-jar duster at the rate of 1 kg per 10 ares. Then, 30 green rice leafhoppers (Nephotettix cincticeps) resistant to organophosphorus and carbamate pesticides were released. […] In all cases, the mortality was not less than 90%.
# [14] = system: tobacco cutworm (Prodenia litura); experiment: Utility Example-5: spray on soy bean leaves, tobacco cutworm larvae; format: in vivo; conditions: 48 h; 13 ppm; 2 days
# Method: An acetone solution of one of the test compounds as mentioned in Table 13 and Tween-20 (the same surfactant as mentioned hereinbefore) was prepared. This acetone solution was diluted with water to prepare a solution containing the test compound in a predetermined concentration. Leaves of soy bean in pots were sprayed with the above diluted solution at the rate of 20 ml/pot and, after one day, ten 3-instar larvae of tobacco cutworm (Prodenia litura) were released on the leaves. The pots were kept in a constant-temperature chamber at 25° C.
# [15] = system: rat; experiment: Acute toxicity test in rat by the oral route; format: in vivo; conditions: Table 1, rat, 10080 min
# Source text: (§5) Acute toxicity test in rat by the oral route
# [16] = Acute toxicity test in rat by the oral route; format: in vivo; conditions: in vivo, male rat, in olive oil, after 7 days
# Source text: as §5
# [17] = system: brown planthoppers (Nilaparvata lugens); experiment: Utility Example-7: 0.5% dust on rice seedlings, brown planthoppers; format: in vivo; conditions: 1 kg per 10 ares, 24 hours
# Source text: A 0.5% dust preparation of each of the cis- and trans-isomers and a 50:50 mixture of the cis- and trans-isomers of Compound (1) and of Compound (2) as prepared by the procedure described in Formulation Example-4 was applied to rice seedlings, on which 30 adult brown planthoppers (Nilaparvata lugens) were released, by means of a bell-jar duster at the rate of 1 kg per 10 ares. […] In all cases, the mortality was not less than 90%.
compound,measurement,setting,value
"CC1(C)C(C=C(Cl)Cl)C1C(=O)OCc1cccc(Oc2ccc(Cl)cc2)c1 (stereo not drawn) [Compound (1) cis-/trans- = 50:50, 3-(4-chlorophenoxy)benzyl 2,2-dimethyl-3-(2,2-dichlorovinyl)cyclopropanecarboxylate]",mortality at 0.0001 mg,[1],100%
same,mortality at 0.0001 mg,"[1]; read-out: Pesticidal effect, tobacco cutworm",100%
same,mortality at 80 ppm,[2],≥ 90%
same,mortality at 200 ppm,[3],100%
same,mortality at 0.5 µg/female,[4],100%
same,mortality at 1 µg/female,[4],100%
same,mortality at 0.001 mg,"[4]; read-out: Pesticidal effect, housefly",100%
same,mortality at 80 ppm,[5],≥ 90%
same,"Toxicity to fish TLm, killifish",[6],> 10 ppm
same,LC50 at 48 h,[7],> 10 µg/mL
same,mortality at 0.01 µg/female,[8],100%
same,mortality at 0.1 µg/female,[8],100%
same,mortality at 1 µg/female,[8],100%
same,LD50,"[8]; read-out: LD50 (median lethal dose), topical, green rice leafhoppers",1.32 mg/kg
same,mortality at 10 ng,"[8]; read-out: Pesticidal effect, green rice leafhopper",100%
same,mortality at 1 µg/larva,[9],100%
same,mortality at 10 µg/larva,[9],100%
same,mortality at 0.001 mg,"[9]; read-out: Pesticidal effect, rice stem borer",100%
same,"Toxicity to fish TLm, guppy",[10],> 5 ppm
same,LC50 at 48 h,[11],> 5 µg/mL
same,mortality,[12],not less than 90%
same,mortality,[13],not less than 90%
same,mortality at 13 ppm,[14],100%
same,Acute oral toxicity to rat LD50,[15],> 3000 mg/kg
same,LD50 at 168 h,[16],> 3000 mg/kg
same,mortality,[17],not less than 90%
